Assays:
LtP [1] = experiment: Uncoupling of LtP respiration in presence of oligomycin (OxoPlates); format: cell-based, Leishmania tarentolae; conditions: 38 µM Oligo
Procedure: The uncoupling experiments using OxoPlates were carried out in analogy to oxygen consumption measurements of LtP. An oligomycin (Oligo) premix in aBHI was prepared leading to a final concentration of 38 µM oligomycin (Oligo). Each well of the second row was filled with 50 µL of aBHI. From the third row on, each well was filled with 50 µL of the Oligo premix and to the fourth row additional 50 µL Oligo premix was added. The respective amounts of the substances (Ac, AQ, AcEP1117, AcEP1118, AcEP1129, AcEP1130, CCCP) were added and a serial 1:2 dilution was performed. Measurements were carried out as described above. The oxygen consumption rates were normalized to the wells that contained only LtP. For each concentration measurements were done in triplicates.

LtP [2] = experiment: EPR (CMH oxidation): superoxide formation in LtP; format: cell-based, Leishmania tarentolae; conditions: 20 µM AA or 100 µM other compounds, 500 × 10^6 LtP/mL, 400 µM CMH, DFO, DTPA, 5 min, 25 °C
Procedure: To measure superoxide radical (O2^•−) formation induced by AcEPs in LtP, EPR spectroscopy was used. An aliquot of the cell broth was transferred into an Eppendorf tube that was centrifuged (Hettich Universal 16, 20 °C, 2000× g, 10 min). The supernatant was discarded, the cell pellet was resuspended in PBS and centrifuged again. After removal of the supernatant, the cell pellet was resuspended in a mixture of PBS, 15 mM glucose (PBS/Glu), DFO (100 µM), and DTPA (25 µM). […] The cell suspension was aliquoted. CMH was added as detection agent leading to a final concentration of 400 µM. After 5 min of incubation at 25 °C, the respective substance was added resulting in final concentrations of 20 µM antimycin A (AA) or 100 µM of AcEP1117, AcEP1118, AcEP1129, AcEP1130, Ac, and AQ. Samples containing LtP and CMH were used as negative control. Samples containing PBS/Glu and CMH were used as negative control as well. After 5 min of incubation at 25 °C with the respective substance, aliquots of 17 µL of the cell suspensions were aspirated into a PTFE tube (outer diameter 0.7 mm). The tube was transferred into the MD5 resonator of the EPR spectrometer. Immediately, the measurement was started using the following parameters: microwave frequency 9.684 GHz; microwave power 20 mW, modulation frequency 100 kHz; modulation amplitude 1 G; time constant 0.82 s; center field 3449 G; scan rate 14 G/min; sweep width 100 G; scan time 419 s; attenuation 2.52 × 10^4; and scans 5.

[3] = Xylenol orange assay: reaction of endoperoxides with Fe2+; conditions: 50 µM compound, 250 µM FeSO4, 125 µM xylenol orange, methanol/H2O (9:1 v/v)
Procedure: Xylenol orange (XO) (125 µM) and butylated hydroxytoluene (4 mM) were dissolved in methanol/H2O (9:1, v/v). FeSO4 (25 mM) in 2.5 M H2SO4 was prepared immediately before use and added, giving a final concentration of 250 µM FeSO4 in the samples. An aliquot of 100 µL EP solution (final concentration of 50 µM) was transferred into a disposable 1.5 mL cuvette (BRAND, Wertheim, Germany), and 1 mL of the color reagent was added. […] At these time points, the OD difference of the sample at 560 nm and 650 nm was determined using a MS1501 UV-vis diode array spectrophotometer (Shimadzu, Japan). As reference, a mixture of methanol/H2O (9:1, v/v) was used. […] The slope of the reaction rate was calculated using an extinction coefficient of the complex of 1.5 × 10^4 M^−1 cm^−1.

LtP [4] = experiment: EPR spin trapping (DMPO): activation of AcEPs by LtP; format: cell-based, Leishmania tarentolae; conditions: 500 µM compound, 2 × 10^9 LtP/mL, 40 mM DMPO, 15 min, no added iron
Procedure: To detect the radicals derived from AcEPs in LtP, EPR experiments were performed using DMPO as spin trap. Aliquots of the cell broth were transferred into Sarstedt tubes that were centrifuged (20 °C, 1800× g, 10 min), and the supernatants were discarded. Then the cell pellets were resuspended in PBS and centrifuged again. After removal of the supernatants, the cell pellets were resuspended in a mixture of PBS containing glucose (15 mM), giving a final cell number of 2 × 10^9 LtP/mL. Aliquots (150 µL) were incubated in 1.5 mL Eppendorf tubes with aeration holes. The cells were incubated with DMPO (40 mM) for 5 min at 26 °C, and after addition of 500 µM of the respective substance (Asc, AcEP1117, AcEP1118, AcEP1129, AcEP1130, Ac or AQ), the samples were incubated for additional 15 min at 26 °C under constant agitation (agitation speed: 0.3 s^−1). Control samples containing LtP, LtP and DMSO (1.27%, v/v), or PBS/glucose alone were incubated with 40 mM DMPO under the same conditions. Cell samples containing DMPO that were treated with Asc served as positive control. Samples treated with Ac or AQ were used as negative controls. Subsequently, 50 µL of the samples were aspirated into glass capillaries and transferred in the MD5 resonator of the EPR spectrometer. The samples were measured immediately using the following instrument settings: microwave frequency 9.684 GHz; microwave power 20 mW, modulation frequency 100 kHz; modulation amplitude 2 G; time constant 0.164 s; center field 3449 G; scan rate 71 G/min; sweep width 100 G; scan time 84 s; attenuation 8.93 × 10^5; and scans 3.

N#CC(C#N)=NNc1cccc(Cl)c1 [CCCP, carbonyl cyanide m-chlorophenylhydrazone]
uncoupling effect (recovery of O2 consumption in the presence of Oligo) (LtP [1]; 0.31–5.0 µM CCCP or 12.5–200.0 µM other compounds): a recovery of O2 consumption in the presence of Oligo was observed

CC[C@H]1/C=C/C=C/C[C@@H](C)[C@H](O)[C@@](C)(O)C(=O)[C@@H](C)[C@H](O)[C@@H](C)C(=O)[C@@H](C)[C@H](O)[C@@H](C)/C=C/C(=O)O[C@@H]2[C@H](C)[C@H](CC1)O[C@]1(CC[C@H](C)[C@H](C[C@@H](C)O)O1)[C@H]2C [Oligo, oligomycin]
oxygen consumption rate compared to untreated LtP (LtP [1]; 140 × 10^6 LtP/mL): about 60%

CCCCCC[C@H]1C(=O)O[C@H](C)[C@H](NC(=O)c2cccc(NC=O)c2O)C(=O)O[C@@H](C)[C@@H]1OC(=O)CC(C)C [AA, antimycin A, reference compound]
CMH oxidation (superoxide radical formation) in LtP (LtP [2]): triggered additional CMH oxidation in LtP

CC(C)C12C=CC(C)(CC1)OO2 (centres unmarked) [Asc, ascaridole, reference compound]
Slope (nM·min^−1) Mean ± SD of XO/Fe^3+ complex formation [3]: 608 ± 52 nM/min | DMPO spin adduct formation in LtP (EPR) (LtP [4]): showed DMPO spin adducts of carbon-centered radicals
